Data: ChEMBL document CHEMBL3507680, “University of Dundee, Gates Library screen for HepG2 cell viability”

Experiment: Human HepG2 cell viability assay in 384 well format
Format: toxicity, cell-based
Parameters: dose 125 nL, time 70.5 hour; cytotoxicity at 70.5 h: concentration not given beside the values
Settings: HepG2 cells, read-out: Inhibition

Going from `Cc1ccc(C)c(NC(=O)N(C)Cc2cnn(C)c2)c1` to `Cc1cnn(CC2CN(CC(=O)N(C)Cc3ccccc3)CCO2)c1` (stereo not given), the cytotoxicity at 70.5 h rises from -3.32% to 2.55%.

First: Fc1ccccc1-c1nnn(CCCc2nn[nH]n2)n1
Second: Cc1noc(CCCC(=O)NC(C)c2cn(-c3ccccc3)nn2)n1 (stereo not given)
The cytotoxicity at 70.5 h of the first is lower: -5.54% for the first, -3% for the second.

Going from `Cn1cc(CN2CCOC[C@H]2c2nc(C(C)(C)C)co2)c2ccccc21` to `CC1COCCN1Cc1nc(-c2ccc(F)cc2)no1` (stereo not given), the cytotoxicity at 70.5 h rises from -2.71% to -0.197%.

First: CCN(CC)S(=O)(=O)N1CCCC(c2nccn2Cc2cccnc2)C1 (stereo not given)
Second: CNc1cccc(C2CCCN(C(=O)c3ccn(C)n3)C2)n1 (stereo not given)
The cytotoxicity at 70.5 h of the first is lower: -5.79% for the first, 16.5% for the second.

Going from `CCc1nnc(CN2CCCC(c3cc(C(N)=O)[nH]n3)C2)o1` (stereo not given) to `CCc1nnc2n1CCN(Cc1csc(NC(C)=O)n1)C2`, the cytotoxicity at 70.5 h rises from -6.39% to -3.38%.

Compared with `OC(COCc1ccccc1Cl)CN1CC(n2cccn2)C1` (stereo not given), `OC(CN1CCC(CNCc2ccccn2)CC1)c1ccccc1` (stereo not given) is lower in cytotoxicity at 70.5 h: 4.22% for the first, 1.35% for the second.

First: COCCOc1ccc(C(=O)N2CCCC(n3cncn3)C2)cn1 (stereo not given)
Second: CN(C)c1ccc(C(=O)N2CCCN(C3CCCCC3)CC2)cn1
The cytotoxicity at 70.5 h of the first is higher: 10.1% for the first, -7.27% for the second.

Compared with `O=C(CC1CCCC1)N[C@H]1CN(Cc2c[nH]cn2)C[C@@H]1C1CC1`, `CC(C)(C)c1cnc(CN2CCC(NC(=O)CC3CCCC3)CC2)o1` is lower in cytotoxicity at 70.5 h: 20.4% for the first, 14% for the second.

Compared with `CC(C)N(C)Cc1cnc2n1CCN(Cc1ccc(F)cc1)C2`, `CCc1cnc(CN(C)C(C)C(=O)N2CCc3ccccc3C2)s1` (stereo not given) is higher in cytotoxicity at 70.5 h: -9.32% for the first, 0.736% for the second.

First: Cc1csc(C(=O)NCCn2nc(-n3cncn3)ccc2=O)c1
Second: Cn1ccnc1SCCNC(=O)c1cc(S(N)(=O)=O)ccc1F
The cytotoxicity at 70.5 h of the first is higher: -6.83% for the first, -9.32% for the second.

First: CN1CCOC(C(=O)N2CCC3(CCCC3)CC2)C1 (stereo not given)
Second: C[C@@H]1CN(C(=O)[C@H]2CCCO2)C[C@]12CCN(c1ccsc1)C2=O
The cytotoxicity at 70.5 h of the first is higher: -2.13% for the first, -11.7% for the second.

Going from `CN(Cc1ccco1)C(=O)CN1C(=O)c2cc(Cl)c(Cl)cc2C1=O` to `COc1cc(C)nc(N2CCN(C(=O)CCc3ccco3)CC2)n1`, the cytotoxicity at 70.5 h rises from -16.6% to -2.64%.

First: Cc1ncc(C(=O)N2CC(C(=O)N3CCOCC3)C2)c(C)n1
Second: Cc1n[nH]c(C2CN(C(=O)c3cnc[nH]3)CCO2)n1 (stereo not given)
The cytotoxicity at 70.5 h of the first is lower: -12.5% for the first, -11.1% for the second.

Going from `CN(C1CCN(c2ccccn2)CC1)S(=O)(=O)c1ccccc1F` to `CN(C)S(=O)(=O)N1CCC(c2cccc(Cc3ccccc3Cl)n2)CC1`, the cytotoxicity at 70.5 h rises from -3.26% to 18.2%.

Going from `Cc1cc(NC(=O)CN2CCN(c3nc(C)cs3)C(C)C2)on1` (stereo not given) to `Cc1cc(-c2cnc(N3CCCC(C)C3)nc2C(C)C)on1` (stereo not given), the cytotoxicity at 70.5 h rises from -1.59% to 18.8%.

First: Cn1cc(CN(CC2(O)CNCCOC2)C2CCCCC2)cn1 (stereo not given)
Second: CCc1nc(CN2CCCN(C(=O)CC3CCCC3)CC2)cs1
The cytotoxicity at 70.5 h of the first is lower: -8.06% for the first, 4.58% for the second.

Going from `O=C(c1ccno1)N1CCO[C@@H]2CC(COCc3ccccn3)C[C@H]21` (stereo not given in full) to `O=C1[C@@H]2CCN(Cc3ccncc3)C[C@@H]2OCCN1c1ccccc1`, the cytotoxicity at 70.5 h falls from -6.23% to -8.52%.

First: CCc1noc(CNc2cccc(C(=O)N3CCSCC3)c2)n1
Second: Cc1ccc(C(=O)N2CCSCC2)cc1NC(=O)NCC1CCC1
The cytotoxicity at 70.5 h of the first is higher: 0.659% for the first, -7.96% for the second.

First: O=C1CCC2(CCN(Cc3cscn3)CC2)CN1CCCO
Second: O=C1CCC2(CCNCC2)CN1Cc1nncn1CCc1ccccc1
The cytotoxicity at 70.5 h of the first is lower: -8.82% for the first, -8.25% for the second.

Compared with `CC(C)CCOc1ccc(C(C)NC(=O)CSCC(N)=O)cc1` (stereo not given), `COc1ccc(-n2cnnc2SCC(=O)NC(C)C)cn1` is higher in cytotoxicity at 70.5 h: -8.07% for the first, -3.19% for the second.

Compared with `CN(Cc1cnc2ccccc2c1)C(=O)C(c1ccccc1F)N(C)C` (stereo not given), `CN(C)c1cc2c(nn1)CCN(C(=O)C1Cc3ccccc3O1)C2` (stereo not given) is higher in cytotoxicity at 70.5 h: -10.3% for the first, 8.33% for the second.

Compared with `COCCCN1CCC(CNc2nccc(-c3cnn(C)c3)n2)C1` (stereo not given), `COCCN1CCC(c2nc3ccc(NC(C)C)cn3n2)CC1` is lower in cytotoxicity at 70.5 h: -6.55% for the first, -17.4% for the second.

First: COCCn1cc(C(=O)N2CCCC2c2noc(C)n2)ccc1=O (stereo not given)
Second: CN(C)S(=O)(=O)c1ccc(=O)n(CC2CCCO2)c1 (stereo not given)
The cytotoxicity at 70.5 h of the first is higher: 40.8% for the first, -1.56% for the second.

First: Fc1ccc(N2CCOC3(COCCN(c4ncccn4)C3)C2)cc1 (stereo not given)
Second: FC(F)(F)CCc1ccnc(N2CCN(CCc3ccncc3)CC2)n1
The cytotoxicity at 70.5 h of the first is lower: -6.83% for the first, -6.22% for the second.

First: CC(C)CC(CO)NS(=O)(=O)Cc1ccon1 (stereo not given)
Second: COCCNC(=O)[C@H]1C[C@@](CC(C)C)(C(=O)O)N(C)[C@H]1c1cccnc1
The cytotoxicity at 70.5 h of the first is lower: -6.44% for the first, 1.74% for the second.

Going from `Cc1ccc(F)cc1S(=O)(=O)Nc1ccc2c(C(=O)O)c[nH]c2c1` to `CCOCC(=O)Nc1cccc(Oc2ccccn2)c1`, the cytotoxicity at 70.5 h falls from 1.03% to -3.31%.

Compared with `c1ccc(COCCN2CCc3[nH]cnc3C2c2ccoc2)cc1` (stereo not given), `O=C1COc2cccc(OCc3ccccn3)c2N1` is lower in cytotoxicity at 70.5 h: 26% for the first, -0.596% for the second.

Compared with `O=C1C(N2CCN(c3ccc(O)cc3)CC2)CCN1C1CCOCC1` (stereo not given), `O=C(C1CC(=O)N(C2CC2)C1)N1CCC(Oc2ccccc2Cl)CC1` (stereo not given) is lower in cytotoxicity at 70.5 h: 24.5% for the first, 0.0694% for the second.

First: CN1CCN([C@@H]2CCN(Cc3cccc(-n4cccn4)c3)C[C@H]2O)CC1
Second: CN1CCN(C[C@H]2CC[C@@H](Cc3ccc4c(c3)OCO4)O2)CC1
The cytotoxicity at 70.5 h of the first is higher: 2.97% for the first, -6.19% for the second.

Compared with `O=C(NCc1cccnc1)c1nc2c(s1)CCCN2C(=O)C1CC1`, `Cc1ncsc1C(=O)NC1CCN(c2ncccc2C#N)CC1` is lower in cytotoxicity at 70.5 h: -3.72% for the first, -6.11% for the second.

Going from `CS(=O)(=O)N1C[C@H]2CCCN(Cc3nccs3)[C@H]2C1` to `CC(=O)N1[C@@H](C(=O)NCC2CC2)C[C@@H]2CN(Cc3nccs3)C[C@@H]21`, the cytotoxicity at 70.5 h falls from 14.5% to -9.23%.

Going from `CCN1C[C@H]2CCN(C(=O)c3cc[nH]n3)CC[C@H]2S1(=O)=O` to `O=C(c1cccn1Cc1cccs1)N1CCN(C(=O)C2CC2)CC1`, the cytotoxicity at 70.5 h falls from -14.6% to -20.1%.

Compared with `CCOCC(=O)NCC(Cc1cccc(F)c1)N1CCCCC1=O` (stereo not given), `CCN(CC1CCCN(CCc2cccc(OC)c2)C1)C(=O)CO` (stereo not given) is lower in cytotoxicity at 70.5 h: 30% for the first, -0.648% for the second.

Compared with `CN(C)S(=O)(=O)N1CC(c2ccnc(Nc3ccccn3)n2)C1`, `Cc1nc(C)n(CC2CCCN2Cc2ccccn2)n1` (stereo not given) is lower in cytotoxicity at 70.5 h: -5.03% for the first, -6.2% for the second.

Compared with `Cc1c(NC(C)C(C)C)cccc1C(=O)NCc1ccnn1C` (stereo not given), `CCOc1cccc(CNC(=O)c2cnn(CC)c2C(F)(F)F)c1` is lower in cytotoxicity at 70.5 h: 4.31% for the first, -2.57% for the second.

Compared with `Fc1cnc(N2CCN3C[C@H](Oc4cncnc4)C[C@H]3C2)nc1`, `CCn1cc(CN2CCCN(C(=O)CCc3cnn(C)c3)CC2)cn1` is lower in cytotoxicity at 70.5 h: 5.05% for the first, -11.5% for the second.

Compared with `Cc1cc(C)n(C2CCN(Cc3c(-c4cc(C)on4)nn(C)c3Cl)C2)n1` (stereo not given), `Cc1csc(CN2CC[C@H]3C[C@H](c4noc(C)n4)O[C@@H]3C2)n1` is lower in cytotoxicity at 70.5 h: -6.11% for the first, -9.71% for the second.

Going from `Clc1ccc(C2(CNC3=NCCN3)CC2)cc1` to `CN(C)CCN1CC[C@@H]2[C@@H]1CCN2C(=O)c1cccc(Cl)c1`, the cytotoxicity at 70.5 h falls from 10% to -13.9%.

Compared with `CC1CCCCN1CCNC(=O)c1ccn(-c2ccccc2)n1` (stereo not given), `COCCNC(=O)Cc1cnc(-n2cccc2)s1` is lower in cytotoxicity at 70.5 h: 13.6% for the first, -22.5% for the second.

Going from `Cn1c(C2CC2)nc2c1CCN(CC(=O)Nc1nccs1)C2` to `CCC(O)CN1CCN(C(=O)c2ccn(C)c(=O)c2)CC1` (stereo not given), the cytotoxicity at 70.5 h falls from -6.18% to -9.11%.
